Patent US5177077A, “1,4-disubstituted piperazines” (Novo Nordisk A/S, priority 1990, dated 1993)
pIC50: −log10 of the molar value. Where two headings read alike, the source gives them in different places.

Columns and labels:
[1] = target: T1, DA-uptake complex (Rattus norvegicus, UniProt P23977); assay: Test 1: inhibition of 3H-GBR 12935 binding to the DA-uptake complex in a striatal membrane preparation
T1 construct: in a striatal membrane preparation; from tissue; host or cells: striatal membranes
Protocol: The compounds were tested for their ability to inhibit the binding of 3H-GBR 12935 to the DA-uptake complex in a striatal membrane preparation following the method described by Andersen (Eur. J. Pharmacol. 166: 493-504, 1989).

[2] = test system: motility of mice; assay: Test 2: increase of motility of mice (photocell crossings); type: in vivo, Male NMRI mice; conditions: for ED50: Mus musculus, po, lowest ED50 determined at a 20 min interval during the 360 min test period, drugs administered orally
Protocol: The compounds were also tested for their ability to increase the motility of mice following intravenous administration using the method outlined below.
Male NMRI mice are used (20±2 g). The animals are housed 20-30 per cage under constant temperature (20°±1°) and relative humidity (40-60%). The animals are brought into the experimental room in the afternoon, the day before they undergo testing.
The experimentally-naive mice are acclimatized by being placed in a plexiglass box (WLH: 20×20×38 cm), four per box, for a 120 min period, and then treated with the test compound whereafter they are replaced in the plexiglass box.
The plexiglass box is equipped with a frame of photocells (spaced equidistantly) which are situated so as to detect locomotor behaviour of the animals (1 cm above the floor). The photocell chamber is housed in an sound-insulated, dimly-lit, ventilated chest. As a measure of exploratory behaviour, the number of photocell crossings in a 360 min period is detected using a minicomputer. Testing is made between 7:00 and 17.00 h.
Drugs are administered orally simultaneously with start of testing; N=4/dose; 4-5 doses of test drug is given in a volume of 10 ml/kg.
Computer programmed log-probit methods are used to generate an ED50 in mg/kg using as minimum the control result, and as maximum values are used 7700 (this latter value has been experimentally found as the maximum motility counts after d-amphetamine in a 20 min period).
The test result is the lowest ED50 value determined at a 20 min interval during the 360 min test period.

T1 sequence (P23977 whole entry, one chain of several): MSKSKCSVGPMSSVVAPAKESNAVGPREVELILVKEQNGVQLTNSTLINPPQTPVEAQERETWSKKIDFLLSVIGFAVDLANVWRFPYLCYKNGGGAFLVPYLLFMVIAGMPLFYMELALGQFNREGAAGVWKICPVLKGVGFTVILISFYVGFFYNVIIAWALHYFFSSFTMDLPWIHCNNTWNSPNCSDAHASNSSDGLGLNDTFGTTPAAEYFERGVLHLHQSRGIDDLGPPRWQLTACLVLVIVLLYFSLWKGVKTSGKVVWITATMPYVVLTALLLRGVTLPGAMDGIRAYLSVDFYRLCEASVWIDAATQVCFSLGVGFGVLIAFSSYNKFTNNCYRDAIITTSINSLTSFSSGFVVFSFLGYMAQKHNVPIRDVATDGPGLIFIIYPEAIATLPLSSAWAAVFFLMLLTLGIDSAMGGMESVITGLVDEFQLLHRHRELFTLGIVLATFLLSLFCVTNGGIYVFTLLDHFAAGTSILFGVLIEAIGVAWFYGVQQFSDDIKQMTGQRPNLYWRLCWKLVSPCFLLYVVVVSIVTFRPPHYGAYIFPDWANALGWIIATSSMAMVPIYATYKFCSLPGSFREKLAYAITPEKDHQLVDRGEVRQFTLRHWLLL

SMILES	pIC50 ([1]; striatal membrane preparation, method of Andersen 1989, read-out: Test 1 (inhibition of 3H-GBR 12935 binding))	ED50 [2] [mg/kg]	pIC50 [1]	maximum motility counts ([2]; in a 20 min period, used as maximum for the log-probit ED50)
Cc1ccsc1C(OCCN1CCN(CCCc2ccccc2)CC1)c1ccc(F)cc1 (stereo not shown) [Example 1]	8.05	30		
Fc1ccc(C(OCCN2CCN(CC=Cc3ccco3)CC2)c2cccs2)cc1 (stereo not shown) [Example 2, 1-[2-((4-fluorophenyl)-(2-thienyl)methoxy)ethyl]-4-[3-(2-furyl)-2-propenyl]piperazine]		17.4	8.33	
Fc1ccc(C(OCCN2CCN(CCCc3ccccc3)CC2)c2ccsc2)cc1 (stereo not shown) [Example 3, 1-[2-((4-fluorophenyl)-(3-thienyl)methoxy)ethyl]-4-(3-phenylpropyl)piperazine]		32	8.43	
C[C@H](N)Cc1ccccc1 [d-amphetamine, reference compound]				7700
